Consider 1 compound from patent US11986485B1, “Compositions and methods for treating epilepsy” (POVIVA CORP, priority 2023, dated 2024).

“Also recorded” adds a separate entry of the source. Some results are limits rather than exact numbers.

This data set in a line: Hepatic markers (ALT, AST, ALP, GGT, total bilirubin) during 5-week administration. The class given is in vivo, humans. The procedure:
The study protocol was registered at the ClinicalTrials.gov (accessed on 7 Apr. 2022) (NCT05346562). […] Following a two-week washout, participants then repeated testing for another five weeks under different conditions. Participants visited the laboratory on 6 occasions in total (3 in each study arm), each time following an overnight fast. The complete course of the study was performed at the Department for Integrative Physiology, University of Split School of Medicine, Split, Croatia. The study design, implementation, and reporting followed the CONSORT guidelines, including the 25-item checklist and a flow diagram. The study was conducted according to the guidelines of the Declaration of Helsinki and was approved by the Ethics Committee of University of Split School of Medicine on 15 Dec. 2021 (Class: 003-08/21-03/0003; Reg. No.: 2181-198-03-04-21-0091). Prior to enrollment in the study, every participant was informed about the procedures, course, and purpose of the research and each of them individually signed an informed written consent.
Each patient visited the laboratory 6 times in total. During each visit, a sample of venous blood was taken from forearm following an overnight fast and sample of urine was obtained. All blood and urine samples were analyzed in the same certified institutional biochemical laboratory, using the standard operating procedures.
Hepatic (ALT, AST, ALP, GGT, and total bilirubin) markers were also measured.
Moreover, these changes we<1 standard deviation and therefore viewed as not clinically meaningful. As noted earlier, >3SD over normative values were classified as an AE.

[1] abbreviates: 5 weeks administration, versus placebo.
Where [2] appears, read: 5 weeks administration, versus placebo, listed as CBD.

In the case of `C=C(C)[C@@H]1CCC(C)=C[C@H]1c1c(O)cc(CCCCC)cc1O` [Cannabidiol, 2-[(1R,6R)-6-Isopropenyl-3-methylcyclohex-2-en-1-yl]-5-pentylbenzene-1,3-diol], under setting [1], the “plasma alanine transaminase (ALT)” value was “remained effectively unchanged over time”, the “plasma alkaline phosphatase (ALP)” value is “remained effectively unchanged over time” and the plasma total bilirubin result was “remained effectively unchanged over time”. In addition, under setting [2], the “plasma aspartate transaminase (AST)” value is “higher in the placebo condition; also recorded: remained effectively unchanged over time” and the “plasma gamma-glutamyl transferase (GGT)” value is on record as “slightly higher; also recorded: remained effectively unchanged over time”. Further, the “size of GGT and AST changes” value (viewed as not clinically meaningful) is reported as less than 1 standard deviation.
